From patent publication US10189841B2, “Purinones as ubiquitin-specific protease 1 inhibitors” (Forma Therapeutics, Inc., priority 2015, dated 2019)

Target: USP1 (construct USP1 (I-785, GG670, 671AA)/UAF1 (I-677)-Flag) (Homo sapiens (Human), UniProt O94782, G670A/G671A)
Experiment: Ubiquitin-Rhodamine 110 assay for USP1 activity
Format: biochemical
Conditions: USP1/UAF1 25 pM, Ub-Rh110 25 nM, 30 min preincubation
Description: Example 53: Ubitquin-Rhodamine 110 Assay for USP1 Activity
The HTS assay was performed in a final volume of 20 μL in assay buffer containing 20 mM Tris-HCl (pH 8.0, (1M Tris-HCl, pH 8.0 solution; Corning 46-031-CM)), 2 mM CaCl2 (1M Calcium Chloride solution; Sigma #21114) 1 mM GSH (L-Glutathione reduced; Sigma #G4251), 0.01% Prionex ([…] filtered, Sigma #G-0411), and 0.01% Triton X-100. Stock compound solutions were stored at −20° C. as 10 mM in DMSO. Up to 1 month prior to the assay, 2 mM test compounds were pre-dispensed into assay plates (Black, low volume; Corning #3820) and frozen at −20° C. Prestamped assay plates were allowed to come to room temperature on the day of the assay. For the screen, 100 nL of 2 mM was pre-dispensed for a final screening concentration of […] (DMSO(fc)=0.5%). The final concentration of the enzyme (USP1, construct USP1 (I-785, GG670, 671AA)/UAF1 (I-677)-Flag; Viva) in the assay was 100 pM. Final substrate (Ub-Rh110; Ubiquitin-Rhodamine 110, R&D Systems #U-555) concentration was 25 nM with [Ub-Rh110]<<Km. […] Plates were incubated stacked for 45 minutes at room temperature before fluorescence was read on the Envision (Excitation at 485 nm and Emission at 535 nm; Perkin Elmer) or on the PheraSTAR (Excitation at 485 nm and Emission at 535 nm; BMG Labtech)
Nanoliter quantities of either an 8-point or 10-point, 3-fold serial dilution in DMSO was pre-dispensed into assay plates (Perkin Elmer, ProxiPlate-384 F Plus, #6008269) for a final test concentration range of either 25 μM to 11 nM or 25 μM to 1.3 nM, respectively. The final concentration of the enzyme (USP1, construct USP1 (I-785, GG670, 671AA)/UAF1 (I-677)-Flag; Viva) in the assay was 25 pM. Final substrate (Ub-Rh110; Ubiquitin-Rhodamine 110, R&D Systems #U-555) concentration was 25 nM with [Ub-Rh110]<<Km. […] Plates were incubated stacked for 20 minutes at room temperature before 5 μL of stop solution (final concentration of 10 mM citric acid in assay buffer (Sigma, #251275-500G)). Fluorescence was read on the Envision (Excitation at 485 nm and Emission at 535 nm; Perkin Elmer) or on the PheraSTAR (Excitation at 485 nm and Emission at 535 nm; BMG Labtech).
For both assay formats data were reported as percent inhibition compared with control wells based on the following equation: % inh=[1−((FLU−AveLow)/(AveHigh−AveLow))]×100 where FLU=measured Fluorescence, AveLow=average Fluorescence of no enzyme control (n=16), and AveHigh=average Fluorescence of DMSO control (n=16). IC50 values were determined by curve fitting of the standard 4 parameter logistic fitting algorithm included in the Activity Base software package: IDBS XE Designer Model205. Data is fitted using the Levenburg Marquardt algorithm.

Sequence of USP1 (construct USP1 (I-785, GG670, 671AA)/UAF1 (I-677)-Flag) (O94782 whole entry G670A/G671A): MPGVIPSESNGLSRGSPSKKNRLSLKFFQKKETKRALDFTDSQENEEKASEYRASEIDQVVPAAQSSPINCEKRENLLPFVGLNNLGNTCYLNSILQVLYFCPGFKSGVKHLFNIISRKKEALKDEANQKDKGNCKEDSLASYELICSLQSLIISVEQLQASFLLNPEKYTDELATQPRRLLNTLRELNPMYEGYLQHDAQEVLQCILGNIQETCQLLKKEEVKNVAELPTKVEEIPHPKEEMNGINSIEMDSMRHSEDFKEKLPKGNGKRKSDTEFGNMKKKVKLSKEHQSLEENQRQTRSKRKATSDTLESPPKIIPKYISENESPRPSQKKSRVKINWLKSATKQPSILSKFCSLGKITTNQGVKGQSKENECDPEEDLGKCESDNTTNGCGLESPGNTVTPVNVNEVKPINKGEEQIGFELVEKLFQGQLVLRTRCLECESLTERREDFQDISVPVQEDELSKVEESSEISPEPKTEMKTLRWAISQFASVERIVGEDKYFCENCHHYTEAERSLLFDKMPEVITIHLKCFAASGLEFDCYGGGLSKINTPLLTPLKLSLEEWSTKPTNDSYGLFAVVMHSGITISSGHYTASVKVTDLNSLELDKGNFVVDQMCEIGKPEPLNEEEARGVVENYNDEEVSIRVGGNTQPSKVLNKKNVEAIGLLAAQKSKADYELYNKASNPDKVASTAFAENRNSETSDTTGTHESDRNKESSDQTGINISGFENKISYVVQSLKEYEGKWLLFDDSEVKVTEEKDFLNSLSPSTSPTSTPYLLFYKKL
Sequence of USP1 (construct USP1 (I-785, GG670, 671AA)/UAF1 (I-677)-Flag) (Q8TAF3 whole entry partner): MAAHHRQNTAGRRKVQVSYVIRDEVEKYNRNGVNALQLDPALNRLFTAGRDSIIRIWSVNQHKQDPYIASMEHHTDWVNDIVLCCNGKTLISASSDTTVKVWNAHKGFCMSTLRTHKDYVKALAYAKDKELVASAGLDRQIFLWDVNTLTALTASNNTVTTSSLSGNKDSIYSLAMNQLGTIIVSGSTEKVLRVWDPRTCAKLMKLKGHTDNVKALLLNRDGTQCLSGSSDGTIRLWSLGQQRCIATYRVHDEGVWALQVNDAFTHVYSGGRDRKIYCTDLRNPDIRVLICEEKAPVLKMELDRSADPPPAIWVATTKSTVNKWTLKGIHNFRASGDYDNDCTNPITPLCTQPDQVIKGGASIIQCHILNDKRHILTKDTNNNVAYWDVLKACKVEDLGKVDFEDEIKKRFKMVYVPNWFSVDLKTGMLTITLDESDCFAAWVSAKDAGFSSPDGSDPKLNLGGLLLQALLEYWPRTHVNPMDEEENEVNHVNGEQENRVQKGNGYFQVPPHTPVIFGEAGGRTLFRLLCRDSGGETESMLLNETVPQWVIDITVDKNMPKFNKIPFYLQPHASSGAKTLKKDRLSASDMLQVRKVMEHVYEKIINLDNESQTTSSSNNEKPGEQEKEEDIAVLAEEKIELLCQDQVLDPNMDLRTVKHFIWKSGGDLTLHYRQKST

| Structure (SMILES) | IC50 [nM] |
| --- | --- |
| Cn1cc(C(F)(F)F)nc1-c1ccc(Cn2c(=O)[nH]c3cnc(-c4ccccc4C(F)F)nc32)cc1 [Compound I-31, 2-(2-(difluoromethyl)phenyl)-9-(4-(1-methyl-4-(trifluoromethyl)-1H-imidazol-2-yl)benzyl)-7,9-dihydro-8H-purin-8-one] | < 50 |
| CC(C)c1ncccc1-c1ncc2[nH]c(=O)n(Cc3ccc(-c4nc(C(F)(F)F)cn4C4COC4)cc3)c2n1 [Compound I-32, 2-(2-isopropylpyridin-3-yl)-9-(4-(1-(oxetan-3-yl)-4-(trifluoromethyl)-1H-imidazol-2-yl)benzyl)-7,9-dihydro-8H-purin-8-one] | 50 to 200 |
| O=c1[nH]c2cnc(-c3cccnc3C3CC3)nc2n1Cc1ccc(-c2nc(C(F)(F)F)cn2C2COC2)cc1 [Compound I-33, 2-(2-cyclopropylpyridin-3-yl)-9-(4-(1-(oxetan-3-yl)-4-(trifluoromethyl)-1H-imidazol-2-yl)benzyl)-7,9-dihydro-8H-purin-8-one] | < 50 |
| CN1CCc2cccc(-c3ncc4[nH]c(=O)n(Cc5ccc(-c6nc(C(F)(F)F)cn6C)cc5)c4n3)c21 [Compound I-34, 9-(4-(1-methyl-4-(trifluoromethyl)-1H-imidazol-2-yl)benzyl)-2-(1-methylindolin-7-yl)-7,9-dihydro-8H-purin-8-one] | < 50 |
| Cn1cc(C(F)(F)F)nc1-c1ccc(Cn2c(=O)[nH]c3cnc(-c4cccnc4OC(F)F)nc32)cc1 [Compound I-35, 2-(2-(difluoromethoxy)pyridin-3-yl)-9-(4-(1-methyl-4-(trifluoromethyl)-1H-imidazol-2-yl)benzyl)-7,9-dihydro-8H-purin-8-one] | < 50 |
| Cn1cc(C(F)(F)F)nc1-c1ccc(Cn2c(=O)[nH]c3cnc(-c4cccc5c4OC(F)(F)O5)nc32)cc1 [Compound I-36, 2-(2,2-difluorobenzo[d][1,3]dioxol-4-yl)-9-(4-(1-methyl-4-(trifluoromethyl)-1H-imidazol-2-yl)benzyl)-7,9-dihydro-8H-purin-8-one] | 200 to 2000 |
| Cn1cc(C(F)(F)F)nc1-c1ccc(Cn2c(=O)[nH]c3cnc(-c4ccccc4OC(F)(F)F)nc32)cc1 [Compound I-37, 9-(4-(1-methyl-4-(trifluoromethyl)-1H-imidazol-2-yl)benzyl)-2-(2-(trifluoromethoxy)phenyl)-7,9-dihydro-8H-purin-8-one] | < 50 |
| CC(=O)c1ccccc1-c1ncc2[nH]c(=O)n(Cc3ccc(-c4nc(C(F)(F)F)cn4C)cc3)c2n1 [Compound I-38, 2-(2-acetylphenyl)-9-(4-(1-methyl-4-(trifluoromethyl)-1H-imidazol-2-yl)benzyl)-7,9-dihydro-8H-purin-8-one] | < 50 |
| Cc1cc(C(F)(F)F)nn1-c1ccc(Cn2c(=O)[nH]c3cnc(-c4cccnc4C(C)C)nc32)cc1 [Compound I-40, 2-(2-isopropylpyridin-3-yl)-9-(4-(5-methyl-3-(trifluoromethyl)-1H-pyrazol-1-yl)benzyl)-7,9-dihydro-8H-purin-8-one] | < 50 |
| Cc1cc(C(F)(F)F)n(-c2ccc(Cn3c(=O)[nH]c4cnc(-c5cccnc5OCC(F)(F)F)nc43)cc2)n1 [Compound I-41, 9-(4-(3-methyl-5-(trifluoromethyl)-1H-pyrazol-1-yl)benzyl)-2-(2-(2,2,2-trifluoroethoxy)pyridin-3-yl)-7,9-dihydro-8H-purin-8-one] | 50 to 200 |
| COCCn1cc(C(F)(F)F)nc1-c1ccc(Cn2c(=O)[nH]c3cnc(-c4cccnc4C(C)C)nc32)cc1 [Compound I-43, 2-(2-isopropylpyridin-3-yl)-9-(4-(1-(2-methoxyethyl)-4-(trifluoromethyl)-1H-imidazol-2-yl)benzyl)-7,9-dihydro-8H-purin-8-one] | 50 to 200 |
| Cn1cc(C(F)(F)F)nc1-c1ccc(Cn2c(=O)[nH]c3cnc(-c4cccc5cnn(C)c45)nc32)cc1 [Compound I-44, 2-(1-methyl-1H-indazol-7-yl)-9-(4-(1-methyl-4-(trifluoromethyl)-1H-imidazol-2-yl)benzyl)-7,9-dihydro-8H-purin-8-one] | < 50 |
| Cn1cc(C(F)(F)F)nc1-c1ccc(Cn2c(=O)[nH]c3cnc(-c4cccc5ccn(C)c45)nc32)cc1 [Compound I-45, 2-(1-methyl-1H-indol-7-yl)-9-(4-(1-methyl-4-(trifluoromethyl)-1H-imidazol-2-yl)benzyl)-7,9-dihydro-8H-purin-8-one] | < 50 |
| CC(C)c1ncccc1-c1ncc2[nH]c(=O)n(Cc3ccc(-c4ccn(C)n4)cc3)c2n1 [Compound I-46, 2-(2-isopropylpyridin-3-yl)-9-(4-(1-methyl-1H-pyrazol-3-yl)benzyl)-7,9-dihydro-8H-purin-8-one] | 200 to 2000 |
| Cc1cn(C)nc1-c1ccc(Cn2c(=O)[nH]c3cnc(-c4cccnc4C(C)C)nc32)cc1 [Compound I-47, 9-(4-(1,4-dimethyl-1H-pyrazol-3-yl)benzyl)-2-(2-isopropylpyridin-3-yl)-7,9-dihydro-8H-purin-8-one] | 200 to 2000 |
| Cn1cc(C(F)(F)F)nc1-c1ccc(Cn2c(=O)n(C)c3cnc(-c4cccnc4OC(F)F)nc32)cc1 [Compound I-48, 2-(2-(difluoromethoxy)pyridin-3-yl)-7-methyl-9-(4-(1-methyl-4-(trifluoromethyl)-1H-imidazol-2-yl)benzyl)-7,9-dihydro-8H-purin-8-one] | < 50 |
| Cn1cc(C(F)(F)F)nc1-c1ccc(Cn2c(=O)n(C)c3cnc(-c4ccccc4OC(F)(F)F)nc32)cc1 [Compound I-49, 7-methyl-9-(4-(1-methyl-4-(trifluoromethyl)-1H-imidazol-2-yl)benzyl)-2-(2-(trifluoromethoxy)phenyl)-7,9-dihydro-8H-purin-8-one] | < 50 |
| Cn1cc(C(F)(F)F)nc1-c1ccc(Cn2c(=O)n(C)c3cnc(-c4cccnc4OCC(F)(F)F)nc32)cc1 [Compound I-50, 7-methyl-9-(4-(1-methyl-4-(trifluoromethyl)-1H-imidazol-2-yl)benzyl)-2-(2-(2,2,2-trifluoroethoxy)pyridin-3-yl)-7,9-dihydro-8H-purin-8-one] | < 50 |
| CC(C)c1ncccc1-c1ncc2[nH]c(=O)n(C3(c4ccc(-c5nc(C(F)(F)F)cn5C)cc4)CC3)c2n1 [Compound I-51, 2-(2-isopropylpyridin-3-yl)-9-(1-(4-(1-methyl-4-(trifluoromethyl)-1H-imidazol-2-yl)phenyl)cyclopropyl)-7,9-dihydro-8H-purin-8-one] | < 50 |
| Cc1cc(Cl)nn1-c1ccc(Cn2c(=O)[nH]c3cnc(-c4cccnc4C(C)C)nc32)cc1 [Compound I-52, 9-(4-(3-chloro-5-methyl-1H-pyrazol-1-yl)benzyl)-2-(2-isopropylpyridin-3-yl)-7,9-dihydro-8H-purin-8-one] | < 50 |
| Cc1cc(Cl)n(-c2ccc(Cn3c(=O)[nH]c4cnc(-c5cccnc5C(C)C)nc43)cc2)n1 [Compound I-53, 9-(4-(5-chloro-3-methyl-1H-pyrazol-1-yl)benzyl)-2-(2-isopropylpyridin-3-yl)-7,9-dihydro-8H-purin-8-one] | < 50 |
| Cc1cccn1-c1ccc(Cn2c(=O)[nH]c3cnc(-c4cccnc4C(C)C)nc32)cc1 [Compound I-54, 2-(2-isopropylpyridin-3-yl)-9-(4-(2-methyl-1H-pyrrol-1-yl)benzyl)-7,9-dihydro-8H-purin-8-one] | 200 to 2000 |
| CO[C@H](C)c1ccccc1-c1ncc2[nH]c(=O)n(Cc3ccc(-c4nc(C(F)(F)F)cn4C)cc3)c2n1 [Compound I-55, (R)-2-(2-(1-methoxyethyl)phenyl)-9-(4-(1-methyl-4-(trifluoromethyl)-1H-imidazol-2-yl)benzyl)-7,9-dihydro-8H-purin-8-one] | < 50 |
| CO[C@@H](C)c1ccccc1-c1ncc2[nH]c(=O)n(Cc3ccc(-c4nc(C(F)(F)F)cn4C)cc3)c2n1 [Compound I-56, (S)-2-(2-(1-methoxyethyl)phenyl)-9-(4-(1-methyl-4-(trifluoromethyl)-1H-imidazol-2-yl)benzyl)-7,9-dihydro-8H-purin-8-one] | < 50 |
